Assay results taken from ChEMBL document CHEMBL1201862, “PubChem BioAssay data set” (2004).
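Method: 48-hour compound exposure of cells in 96-well plates, five concentrations, linear interpolation of endpoints. The concentration for 50% growth inhibition is given as GI50.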 The source made the active and inactive calls. Cut-off read from the data, not from the text of the source: active = GI50 up to about 1.1 µM and inactive = higher.

How the values were obtained:
Assay in all cases: inhibition of tumour cell growth, NCI panel, 48 h
ACHN = system: ACHN
RXF 393 = system: RXF 393
Hs-578T = system: Hs-578T
DU-145 = system: DU-145
SK-OV-3 = system: SK-OV-3
U-251 = system: U-251
A549 = system: A549
SK-MEL-28 = system: SK-MEL-28
HCC 2998 = system: HCC 2998
PC-3 = system: PC-3
HT-29 = system: HT-29
OVCAR-5 = system: OVCAR-5
UO-31 = system: UO-31
MDA-N = system: MDA-N
LOX IMVI = system: LOX IMVI
NCI-H226 = system: NCI-H226
HOP-92 = system: HOP-92
HCT-116 = system: HCT-116
K562 = system: K562
IGROV-1 = system: IGROV-1
Malme-3M = system: Malme-3M
COLO 205 = system: COLO 205
NCI-H23 = system: NCI-H23
SNB-75 = system: SNB-75
EKVX = system: EKVX
OVCAR-8 = system: OVCAR-8
NCI-H460 = system: NCI-H460
MOLT-4 = system: MOLT-4
SF-539 = system: SF-539
NCI-H522 = system: NCI-H522
SF-295 = system: SF-295
TK-10 = system: TK-10
CAKI-1 = system: CAKI-1
T47D = system: T47D
MDA-MB-231 = system: MDA-MB-231
KM12 = system: KM12
HCT-15 = system: HCT-15
UACC-62 = system: UACC-62
SK-MEL-5 = system: SK-MEL-5
BT-549 = system: BT-549
786-0 = system: 786-0
SW-620 = system: SW-620
SK-MEL-2 = system: SK-MEL-2
M14 = system: M14
SNB-19 = system: SNB-19
UACC-257 = system: UACC-257
MCF7 = system: MCF7
OVCAR-4 = system: OVCAR-4
CCRF-CEM = system: CCRF-CEM
SF-268 = system: SF-268
MDA-MB-435 = system: MDA-MB-435
OVCAR-3 = system: OVCAR-3
A498 = system: A498
HOP-62 = system: HOP-62
RPMI-8226 = system: RPMI-8226
HL-60 = system: HL-60
NCI/ADR-RES = system: NCI/ADR-RES
SN12C = system: SN12C

Measured: GI50

O=C(O)C/C(=C\c1ccccc1)C(=O)O
inactive: ACHN > 100 µM | RXF 393 > 100 µM | Hs-578T > 100 µM | DU-145 > 100 µM | SK-OV-3 > 100 µM | U-251 > 100 µM | A549 > 100 µM | SK-MEL-28 > 100 µM | HCC 2998 > 100 µM | PC-3 > 100 µM | HT-29 > 100 µM | OVCAR-5 > 100 µM | UO-31 > 100 µM | MDA-N > 100 µM | LOX IMVI > 100 µM | NCI-H226 > 100 µM | HOP-92 > 100 µM | HCT-116 > 100 µM | K562 31.7 µM | IGROV-1 > 100 µM | Malme-3M > 100 µM | COLO 205 > 100 µM | NCI-H23 > 100 µM | SNB-75 > 100 µM | EKVX > 100 µM | OVCAR-8 > 100 µM | NCI-H460 > 100 µM | MOLT-4 > 100 µM | SF-539 > 100 µM | NCI-H522 > 100 µM | SF-295 > 100 µM | TK-10 > 100 µM | CAKI-1 > 100 µM | T47D > 100 µM | MDA-MB-231 > 100 µM | KM12 > 100 µM | UACC-62 > 100 µM | SK-MEL-5 > 100 µM | BT-549 > 100 µM | 786-0 > 100 µM | SW-620 > 100 µM | SK-MEL-2 > 100 µM | M14 > 100 µM | SNB-19 > 100 µM | UACC-257 > 100 µM | MCF7 > 100 µM | OVCAR-4 > 100 µM | CCRF-CEM > 100 µM | SF-268 > 100 µM | MDA-MB-435 > 100 µM | OVCAR-3 > 100 µM | A498 > 100 µM | HOP-62 > 100 µM | RPMI-8226 > 100 µM | HL-60 > 100 µM | NCI/ADR-RES > 100 µM | SN12C > 100 µM
> 100 µM: HCT-15
